Laboratory results reported in US9770195B2, “Automated scratch detection system and signal processing algorithm for the study of pruritus in animals” (The Regents of the University of California, priority 2012, dated 2017).
Entries after “also recorded” stand apart in the source; their conditions may differ. Where two headings read alike, the source gives them in different places.

What was measured:
C57Bl/6 mice [1] = experiment: Pruritogen-evoked hind paw scratching counted by the paw motion detector (PMD) in mice; assay type: in vivo; conditions: mouse; for scratching behavior evoked by the pruritogen: injection to dorsolateral neck, ipsilateral paw, 60 min; for dose response of scratching: histamine 0.111-11.1 g/mL, chloroquine 0.1-2 mg/mL, 48/80 0.125-0.5 mg/mL
Excerpt: Data acquisition is then initiated. […] The PMD detects the movement of a non-ferrous metal band placed around one hind paw of the rodent (for the mouse the band weight=0.1 g while for the rat the band weight=0.5 g). There are two distinct bands one for the rat and one for the mouse (see the band in Yaksh et al., 2001). The testing apparatus consists of cylindrical chambers (mouse: 8.5 cm diameter/22.5 cm tall; rat: 15 cm diameter/30 cm tall). Under each cylinder is a pair of circular concentric electromagnetic coils, which serve respectively as antennas for transmission and reception. […] The transmitter coil assembly is constructed to emit a 5-8 mW, 6-8 kHz, sinusoidal electromagnetic field (Blue Max 800 Precision scan search coil White's Electronics, Inc., OR). The detection principal is that Eddy currents created by the movements of the ferrous and nonferrous metals perturb the EM field. Such perturbations produce an output waveform and are subsequently detected (Yaksh et al., 2001). The analog signal from the sensing coil assembly is fed into a standard National Instruments based signal acquisition A-D converter system ([…] or PCI-MI0-16Xe-10 National Instruments Corp.) driven into a standard LabView based software (Lab view v.5.1 National Instruments Corporation, Austin, Tex.). The signal is filtered, amplified, and digitized (sampling rate of 1000 Hz, 12-bit resolution). This signal (conditioned signal in FIG. 2) is then entered and passed through a two component-triggering algorithm configured in the Lab view program. In the first phase, the processed signal is sent through an algorithm to establish a scratch movement trigger. In this phase, the processed signal is subjected to a “zero-crossing interval-peak height” analysis based on the signal amplitude in a sliding time window (see Yaksh et al., 2001). The range of voltages (1-0.01 V) over a moving 128-ms interval is configured to produce a continuous output waveform. […] The signal is then smoothed by using a non-weighted moving average filter. The smoothed range waveform is examined in real time by a peak-detection algorithm set to pick out spikes of >500 ms and amplitudes of >0.3 V. Each peak provided a trigger signal, which is represented by a red line on the automated system's display, see FIG. 3. The signal is then processed through a second level algorithm to define bursting. A high frequency scratching burst, which we will now call a microburst, is defined as multiple trigger signals occurring within a specified moving window time frame (e.g. 2 trigger signals within a 1.15 s time frame) without double counting trigger signals. […] Paw movement events meeting the criteria of a scratch microburst are captured and summed at 1-min increments by default (and can be summed from 1 s to 60 min increments). Summed data are stored in Microsoft Excel compatible spreadsheets.

Holtzman rats = experiment: SQ 48/80-evoked homolateral scratching in the rat (PMD, Example 2); assay type: in vivo; conditions: diphenhydramine 1 mg/kg IP with SQ 48/80
Excerpt: Data acquisition is then initiated.
The PMD detects the movement of a non-ferrous metal band placed around one hind paw of the rodent (for the mouse the band weight=0.1 g while for the rat the band weight=0.5 g). There are two distinct bands one for the rat and one for the mouse (see the band in Yaksh et al., 2001). The testing apparatus consists of cylindrical chambers (mouse: 8.5 cm diameter/22.5 cm tall; rat: 15 cm diameter/30 cm tall). Under each cylinder is a pair of circular concentric electromagnetic coils, which serve respectively as antennas for transmission and reception. Outer coil diameters for the mouse and rat are 12 cm and 20 cm, respectively. The transmitter coil assembly is constructed to emit a 5-8 mW, 6-8 kHz, sinusoidal electromagnetic field (Blue Max 800 Precision scan search coil White's Electronics, Inc., OR). The detection principal is that Eddy currents created by the movements of the ferrous and nonferrous metals perturb the EM field. Such perturbations produce an output waveform and are subsequently detected (Yaksh et al., 2001).

C57Bl/6 mice [2] = conditions: mouse; for effect on chloroquine (1 mg/mL) evoked scratching: diphenhydramine 1 mg/kg IP

CCN(CC)CCCC(C)Nc1ccnc2cc(Cl)ccc12 (stereo not drawn) [chloroquine]
cumulative macroburst counts, 48/80 vs chloroquine (C57Bl/6 mice [1]; 1 hour, SQ 48/80 0.5 mg/mL vs chloroquine 1 mg/mL, N=5, p<0.001): significantly different | scratching behavior evoked by the pruritogen (C57Bl/6 mice [1]): vigorous scratching; also recorded: significant scratching incidence | average macrobursts (C57Bl/6 mice [1]; over 1 hour after SQ 48/80 0.5 mg/mL or chloroquine 1 mg/mL, N=5, FFT transformed): 8.4 | dose response of scratching (C57Bl/6 mice [1]): inverse u shape dose response curve | dose response of scratching (C57Bl/6 mice [1]; listed as Chloroquine): inverse U shaped dose response curve; also recorded: inverse u-shaped dose response curve

CN(C)CCOC(c1ccccc1)c1ccccc1 [diphenhydramine, Diphenhydramine]
effect on 48/80-evoked scratching (Holtzman rats): significant reduction in the observed magnitude of scratching | effect on scratching produced by 48/80 (C57Bl/6 mice [2]; diphenhydramine 0.1 mg/kg IP, 30 min pretreatment, SQ 48/80 0.5 mg/mL): complete reversal of scratching | effect on chloroquine (1 mg/mL) evoked scratching (C57Bl/6 mice [2]; 30 min pretreatment): lower mean microburst count than those treated with chloroquine alone, but this was not statistically significant | effect on chloroquine (1 mg/mL) evoked scratching (C57Bl/6 mice [2]; 30 min pretreatment, listed as Diphenhydramine): no statistically significant effect | effect on SQ histamine-evoked scratching (C57Bl/6 mice [2]; diphenhydramine, dose not stated): reversed | effect on scratching produced by 48/80 (C57Bl/6 mice [2]; higher doses of diphenhydramine (0.3, 1 mg/kg IP)): suppression of behavior as compared to saline treated animals | effect on 48/80-evoked scratching, across doses (C57Bl/6 mice [2]; increasing doses of IP diphenhydramine): attenuated in an equally dose dependent fashion; also recorded: reversed

CCN(CC)CC(=O)Nc1c(C)cccc1C [lidocaine]
effect on histamine-evoked scratching (C57Bl/6 mice [2]; SQ lidocaine 2.5% injected into the site 5 min prior to histamine): blocked the scratching behavior

Cl.Cl.NCCc1c[nH]cn1 [histamine, Histamine dihydrochloride]
scratching behavior evoked by the pruritogen (C57Bl/6 mice [1]): vigorous scratching | dose response of scratching (C57Bl/6 mice [1]; dihydrochloride): robust dose dependent scratching
